Experiment: molar heat capacity at constant pressure
Details: 101.33 kPa, Crystal

[Gd+3].[Gd+3].[O-2].[O-2].[O-2] [gadolinium sesquioxide]
Details	molar heat capacity at constant pressure [J/K/mol]
5.34 K	4.24
5.84 K	5.88
6.65 K	6.66
8.48 K	4.7
10.16 K	3.95
11.17 K	3.51
11.58 K	3.33
13.24 K	3.19
13.72 K	3.18
14.69 K	3.17
15.56 K	3.2
15.84 K	3.18
16.98 K	3.47
17.06 K	3.5
18.14 K	3.76
18.46 K	3.8
19.29 K	4.28
19.86 K	4.28
20 K	4.32
20.63 K	4.51
21.24 K	4.73
21.97 K	5.08
22.65 K	5.27
23.31 K	5.65
23.91 K	5.87
24.66 K	6.36
25 K	6.55
25.22 K	6.67
26.02 K	7.26
26.08 K	7.21
26.79 K	7.55
27.33 K	7.65
27.99 K	7.92
28.5 K	8.29
29.64 K	8.93
30 K	9.163
31.19 K	9.927
32.73 K	10.96
34.3 K	11.95
35 K	12.42
35.9 K	13.02
37.53 K	13.85
39.19 K	14.85
40 K	15.35
40.87 K	15.9
42.55 K	17.06
44.25 K	18.21
45 K	18.7
45.96 K	19.33
47.7 K	20.45
49.45 K	21.55
50 K	21.9
51.21 K	22.67
52.99 K	23.75
54.78 K	24.86
56.58 K	26
58.39 K	27.1
60 K	28.03
60.22 K	28.16
62.05 K	29.26
63.89 K	30.33
65.75 K	31.37
67.61 K	32.46
69.47 K	33.54
70 K	33.85
71.35 K	34.62
73.23 K	35.69
75.12 K	36.68
77.01 K	37.74
78.91 K	38.79
80 K	39.37
80.81 K	39.79
82.72 K	40.83
83.39 K	41.24
84.63 K	41.9
85.99 K	42.64
86.55 K	42.9
88.47 K	43.84
88.8 K	44.12
90 K	44.63
90.39 K	44.82
91.62 K	45.57
92.32 K	45.88
93.14 K	46.35
93.67 K	46.53
94.25 K	46.87
94.44 K	46.97
94.91 K	47.23
96.18 K	47.87
96.86 K	48.18
97.27 K	48.4
98.12 K	48.9
98.79 K	49.39
100 K	50.12
100.06 K	50.15
100.11 K	50.21
100.72 K	50.42
102.65 K	51.08
102.97 K	51.17
104.58 K	51.98
105.83 K	52.6
106.52 K	53
108.46 K	54.02
108.7 K	54.13
110.4 K	54.87
111.58 K	55.27
112.35 K	55.75
114.3 K	56.56
114.46 K	56.66
116.25 K	57.42
117.35 K	57.9
118.2 K	58.29
120 K	58.58
120.15 K	58.66
120.24 K	58.72
122.11 K	59.91
123.15 K	60.56
124.07 K	60.93
126.02 K	61.79
126.04 K	61.82
127.98 K	62.72
128.94 K	63.08
129.95 K	63.54
131.83 K	64.33
131.91 K	64.31
133.87 K	65.17
134.73 K	65.5
135.84 K	65.98
137.64 K	66.69
137.81 K	66.76
139.77 K	67.58
140 K	67.66
140.55 K	67.86
141.74 K	68.33
143.47 K	69
143.71 K	69.08
145.68 K	69.88
146.39 K	70.15
147.65 K	70.61
149.31 K	71.26
149.62 K	71.38
151.6 K	72.1
152.23 K	72.33
153.57 K	72.82
155.16 K	73.39
155.55 K	73.55
157.52 K	74.24
158.09 K	74.43
159.5 K	74.94
160 K	75.12
161.02 K	75.46
161.47 K	75.6
163.45 K	76.3
163.95 K	76.42
165.43 K	76.95
166.88 K	77.42
167.41 K	77.62
169.38 K	78.25
169.82 K	78.4
171.36 K	78.94
172.76 K	79.32
173.34 K	79.5
175.32 K	80.12
175.7 K	80.25
177.31 K	80.7
178.65 K	81.16
179.29 K	81.37
180 K	81.58
181.27 K	81.94
181.59 K	82.04
183.25 K	82.48
184.54 K	82.86
185.23 K	83.08
187.21 K	83.64
187.49 K	83.73
189.2 K	84.23
190.44 K	84.56
191.18 K	84.81
193.16 K	85.14
193.39 K	85.31
195.15 K	85.81
196.34 K	86.05
197.13 K	86.3
199.11 K	86.89
199.29 K	86.89
200 K	87.05
201.1 K	87.39
202.24 K	87.63
203.08 K	87.88
205.07 K	88.38
205.19 K	88.38
207.05 K	88.8
208.15 K	89.05
209.04 K	89.3
211.03 K	89.8
211.11 K	89.8
213.01 K	90.21
214.07 K	90.46
215 K	90.71
216.99 K	91.13
217.03 K	91.13
218.97 K	91.54
219.98 K	91.79
220 K	91.79
220.96 K	92.04
222.94 K	92.46
222.95 K	92.46
224.93 K	92.87
225.89 K	93.04
226.92 K	93.29
228.85 K	93.7
228.91 K	93.62
230.9 K	94.12
231.81 K	94.2
232.89 K	94.45
234.77 K	94.87
234.87 K	94.87
236.86 K	95.28
237.72 K	95.45
238.17 K	95.62
238.8 K	95.53
240 K	95.87
240.35 K	95.95
240.69 K	95.95
242.83 K	96.36
243.65 K	96.53
245.3 K	96.78
246.61 K	97.03
247.77 K	97.28
249.58 K	97.53
250.25 K	97.61
252.54 K	98.11
252.72 K	98.11
255.2 K	98.19
255.52 K	98.28
257.67 K	98.78
258.49 K	98.86
260 K	99.11
260.15 K	99.19
261.46 K	99.44
262.63 K	99.61
264.43 K	99.86
265.1 K	100
267.4 K	100.4
267.57 K	100.4
270.05 K	100.8
270.36 K	100.9
272.53 K	101.2
273.33 K	101.3
275.01 K	101.6
276.31 K	101.8
277.49 K	102
279.28 K	102.3
279.96 K	102.3
280 K	102.3
282.25 K	102.7
282.44 K	102.6
284.92 K	103
285.23 K	103.1
287.4 K	103.4
288.2 K	103.5
289.88 K	103.8
291.17 K	104
292.35 K	104.1
294.15 K	104.4
294.83 K	104.5
297.13 K	105
297.32 K	105
298.15 K	105.1
299.8 K	105.2
300 K	105.2
300.11 K	105.2
302.28 K	105.4
303.09 K	105.6
304.77 K	105.6
304.91 K	105.8
306.07 K	106
307.26 K	106
307.89 K	106.2
309.06 K	106.4
309.74 K	106.4
310.86 K	106.6
312.04 K	106.7
312.23 K	106.7
313.84 K	106.8
314.72 K	106.9
315.03 K	107
316.82 K	107.2
317.21 K	107.2
318.02 K	107.3
319.7 K	107.4
319.8 K	107.6
320 K	107.6
321.01 K	107.7
322.19 K	107.8
322.77 K	108
324 K	108.1
324.68 K	108.2
325.75 K	108.3
326.99 K	108.4
327.18 K	108.3
329.67 K	108.6
331.72 K	108.9
334.69 K	109.2
337.67 K	109.5
340 K	109.7
340.65 K	109.8
343.63 K	110
346.62 K	110.3
349.6 K	110.6
352.59 K	110.8
355.58 K	111.1
358.57 K	111.4
360 K	111.5
361.56 K	111.6
364.55 K	111.9
367.55 K	112
370.55 K	112.2
373.55 K	112.5
376.55 K	112.7
379.55 K	113
380 K	113
382.56 K	113.2
385.56 K	113.4
388.57 K	113.6
391.59 K	113.8
394.6 K	113.9
397.62 K	114
400.65 K	114.2
